{
  "source": "patent US20090156466A1",
  "about": "“Characterization of a MEKK binding site and uses thereof” (priority 2007, published 2009)",
  "key": {"MEKK3": {"target": "T1, MEKK3 (Homo sapiens, UniProt Q99759)", "T1 construct": "expressed in transfected cells; host or cells: HEK 293", "T1 sequence (Q99759 1-626)": "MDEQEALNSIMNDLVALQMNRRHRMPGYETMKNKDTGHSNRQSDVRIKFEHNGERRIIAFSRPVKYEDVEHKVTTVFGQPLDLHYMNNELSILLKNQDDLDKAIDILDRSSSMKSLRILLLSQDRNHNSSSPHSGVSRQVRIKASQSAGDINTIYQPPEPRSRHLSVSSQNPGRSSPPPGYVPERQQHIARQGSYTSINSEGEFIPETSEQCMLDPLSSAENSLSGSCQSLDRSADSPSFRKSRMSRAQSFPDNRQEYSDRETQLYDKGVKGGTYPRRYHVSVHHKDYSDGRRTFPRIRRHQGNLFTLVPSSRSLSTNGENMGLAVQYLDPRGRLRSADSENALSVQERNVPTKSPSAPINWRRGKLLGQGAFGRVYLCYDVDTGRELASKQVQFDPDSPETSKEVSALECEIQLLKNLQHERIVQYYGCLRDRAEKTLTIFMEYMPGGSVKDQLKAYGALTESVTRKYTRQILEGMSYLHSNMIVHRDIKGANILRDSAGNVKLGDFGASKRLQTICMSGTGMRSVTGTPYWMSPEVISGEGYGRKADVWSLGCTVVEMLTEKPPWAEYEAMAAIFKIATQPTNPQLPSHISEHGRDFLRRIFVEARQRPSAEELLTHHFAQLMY", "test": "MEKK3 mobility band shift on high-ratio acrylamide:bis-acrylamide SDS-PAGE of lysates from treated cells", "type": "cell-based", "details": "MEKK3 expressed in treated HEK293 cells; data not shown"}, "MEKK3-14-3-3 interaction": {"target": "T2, MEKK3-14-3-3 interaction (Homo sapiens, UniProt Q99759)", "T2 construct": "expressed in transfected cells; host or cells: HEK 293", "T2 sequence (Q99759 1-626)": "T1 sequence (Q99759 1-626)", "test": "Co-immunoprecipitation of 14-3-3 with FLAG-MEKK3 from HEK 293 cells treated with kinase inhibitor", "type": "cell-based", "details": "HEK 293 cells with wt MEKK3; 1 μM, 5 μM or 10 μM for 20 min prior to solubilization", "protocol": "A, B. HEK 293 cells were transfected with wildtype (wt) MEKK3, K391M MEKK3, or S526A MEKK (shown in B) or empty vector. After 24 hours, cells were solubilized, and FLAG-MEKK3 was immunoprecipitated with anti-FLAG M2-conjugated agarose. Proteins were resolved by SDS-PAGE, and immunoblotted with anti-FLAG antibody or anti-14-3-3β antibody (which recognizes the family of 14-3-3 proteins). C. HEK 293 cells were transfected with wt MEKK3 for 24 hours, and then treated with staurosporine (1 μM, 5 μM, or 10 μM) for 20 min prior to solubilization. MEKK3 and 14-3-3 were detected as in A.\nHEK 293 cells were plated onto 35-mm-diameter dishes at 80% confluency, and transfected with 100 to 500 ng of cDNA using Lipofectamine-2000 (Gibco-BRL) following the manufacturer's protocol. Transfection medium was removed and replaced with complete DMEM overnight.\nCells were lysed in 50 mM Tris-HCl, pH 7.4, 1% Triton X-100, 25 mM NaF, 25 mM β-glycerophosphate, 5 mM EDTA, 0.05% SDS, 1.0 μg/ml microcystin LR, and protease inhibitors. […] FLAG was stained with anti-FLAG M2 mouse monoclonal (Sigma), and 14-3-3 isoforms were detected with anti-14-3-3β (H8; Santa Cruz Biotechnology).\nThe family of 14-3-3 proteins was detected by immunoblotting with a pan-specific 14-3-3 antibody raised against a common sequence present in all family members. […]"}},
  "data": [
    {"smiles": "N#CC(=C(/N)Sc1ccccc1N)/C(C#N)=C(\\N)Sc1ccccc1N", "note": "[U0126]", "values": [
      {"measurement": "MEKK3 band shift (mobility shift on SDS-PAGE)", "setting": "MEKK3", "value": "had no effect on mobility shift"}
    ]},
    {"smiles": "CN[C@@H]1C[C@H]2O[C@@](C)([C@@H]1OC)n1c3ccccc3c3c4c(c5c6ccccc6n2c5c31)C(=O)NC4", "note": "[staurosporine]", "values": [
      {"measurement": "MEKK3 band shift (mobility shift on SDS-PAGE)", "setting": "MEKK3", "value": "reduced the MEKK3 band shift"},
      {"measurement": "MEKK3-14-3-3 interaction (14-3-3 co-immunoprecipitation)", "setting": "MEKK3-14-3-3 interaction", "value": "disrupted MEKK3-14-3-3 interaction"}
    ]}
  ]
}
